Measurements published in ChEMBL document CHEMBL1201862, “PubChem BioAssay data set” (2004).
The source made the active and inactive calls.

Key:
[1] = Shn3 3'UTR reporter inhibitors, dose response, cell-based, Clone20 osteoblasts, firefly luciferase, cherry-picked (AID 624132); type: functional;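 also: firefly luciferase luminescence from reporter carrying the Shn3 3'UTR in osteoblasts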
[2] = HepG2 cell cytotoxicity, dose response, cytotoxicity control for Shn3 inhibitor project, CellTiter-Glo, cherry-picked (AID 624134); type: functional, cell-based
HEK293 [3] = assay: NOD2 signaling inhibitors in MDP-stimulated cells, cell-based, uHTS, luminescence (AID 2001); type: functional; details: Homo sapiens
[4] = molecular target: Beta-2 adrenergic receptor (Homo sapiens, UniProt P07550); assay: beta2AR agonists driving receptor internalization, dose response, cell-based, FAP fluorogen, flow cytometry, cherry pick 1 (AID 588763); type: functional
Sequence of Beta-2 adrenergic receptor (P07550 whole entry): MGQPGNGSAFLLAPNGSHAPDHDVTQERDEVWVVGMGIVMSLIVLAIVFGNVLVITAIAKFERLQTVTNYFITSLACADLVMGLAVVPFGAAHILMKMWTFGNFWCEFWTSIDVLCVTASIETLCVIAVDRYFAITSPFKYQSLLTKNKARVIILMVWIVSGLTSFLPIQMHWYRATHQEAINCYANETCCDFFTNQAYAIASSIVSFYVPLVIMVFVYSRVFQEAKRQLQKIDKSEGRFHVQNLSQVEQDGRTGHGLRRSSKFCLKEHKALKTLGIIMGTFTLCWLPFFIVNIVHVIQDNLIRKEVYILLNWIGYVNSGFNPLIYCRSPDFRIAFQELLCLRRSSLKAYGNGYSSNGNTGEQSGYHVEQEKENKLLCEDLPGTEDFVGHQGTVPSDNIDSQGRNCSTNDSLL

HeLa = assay: Cytotoxicity counterscreen assay for transcriptional activators of heat shock protein 70 (Hsp70). [Related pubchem assays: 1203, 1252 ]; type: functional; details: Homo sapiens;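 also: cells exposed to compound for 16 hours before readout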
[5] = molecular target: Sphingosine 1-phosphate receptor 1 (Homo sapiens, UniProt P21453); type: functional;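 also: Tango beta-arrestin reporter U2OS cells stimulated with S1P near its EC80; inhibitor potency meaning antagonism of receptor activation by the natural agonist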
Sequence of Sphingosine 1-phosphate receptor 1 (P21453 whole entry): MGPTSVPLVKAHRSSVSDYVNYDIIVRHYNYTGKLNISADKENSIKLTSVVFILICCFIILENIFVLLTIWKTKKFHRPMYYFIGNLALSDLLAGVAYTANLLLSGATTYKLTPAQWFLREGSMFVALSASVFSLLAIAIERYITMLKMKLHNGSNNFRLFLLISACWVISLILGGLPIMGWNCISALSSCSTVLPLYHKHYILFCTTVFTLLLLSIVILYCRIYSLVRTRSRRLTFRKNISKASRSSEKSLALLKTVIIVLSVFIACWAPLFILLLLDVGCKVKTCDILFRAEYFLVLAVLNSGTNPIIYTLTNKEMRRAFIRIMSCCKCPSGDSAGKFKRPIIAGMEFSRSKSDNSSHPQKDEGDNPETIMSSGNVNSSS

[6] = growth suppression of PTEN-null colon cells, dose response, cell-based, HCT116 PTEN knockout (AID 1047); type: functional;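 also: HCT116 colon tumor cells with PTEN knocked out; cells exposed to compound for 60 hours before readout; potency for loss of cell viability measured by luminescence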
HEK293 [7] = assay: cells; type: functional, cell-based; details: Homo sapiens
[8] = cytotoxicity toward NIH3T3 fibroblasts, dose response, counter-screen, cell-based, ATP luminescence, mouse fibroblasts (AID 2010); type: functional;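 also: cells exposed to compound for about 90 hours before reading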
HEK293 [9] = assay: cells; type: functional, cell-based; details: Homo sapiens; remark: listed apart in the source
HEK293 [10] = assay: NOD1 signaling inhibitors, primary screen, cell-based, luminescence, uHTS (AID 1578); type: functional; details: Homo sapiens
[11] = molecular target: Sphingosine 1-phosphate receptor 4 (Homo sapiens, UniProt O95977); assay: Fluorescence dose response cell-based high throughput screening assay for antagonists of the Sphingosine 1-Phosphate Receptor 4 (S1P4). [Related pubchem assays: 1524 (Confirmation in triplicates.), 1510 (Primary screen.)]; type: functional
Sequence of Sphingosine 1-phosphate receptor 4 (O95977 whole entry): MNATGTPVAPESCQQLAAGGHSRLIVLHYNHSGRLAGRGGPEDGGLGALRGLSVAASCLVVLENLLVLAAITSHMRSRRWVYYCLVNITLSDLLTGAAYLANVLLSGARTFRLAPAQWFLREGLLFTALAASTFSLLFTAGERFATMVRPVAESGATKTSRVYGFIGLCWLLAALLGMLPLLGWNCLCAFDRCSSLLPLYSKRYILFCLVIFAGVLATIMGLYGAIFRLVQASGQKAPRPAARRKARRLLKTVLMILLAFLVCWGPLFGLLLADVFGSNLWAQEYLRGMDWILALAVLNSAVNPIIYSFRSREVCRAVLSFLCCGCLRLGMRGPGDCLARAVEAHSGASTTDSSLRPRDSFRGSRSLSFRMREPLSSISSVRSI

[12] = inhibitors of intracellular T. cruzi replication, confirmation, NIH3T3 host cells, beta-gal luminescence (AID 2044); type: functional, cell-based;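 also: intracellular parasites grown in NIH/3T3 mouse fibroblasts as host cells; luminescent beta-galactosidase reporter signal from transgenic T. cruzi replicating inside host cells; inhibitors lower the luminescence signal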
[13] = control 3'UTR Renilla luciferase suppression, dose response, counter-screen for Shn3 inhibitor project, cell-based, Clone20-Shn3RL, cherry-picked (AID 624133); type: functional
INS1 = assay: beta cell apoptosis inhibitors, cytokine rescue, dose response, luminescence, retest (AID 449756); type: functional, cell-based; details: Rattus norvegicus;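 also: cell death triggered by IL-1 beta plus TNF-alpha plus IFN-gamma mixture; protective hits raise ATP signal compared with cytokine alone wells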
[14] = growth suppression of beta-catenin-knockout colon cells, dose response, cell-based, HCT116, human colon tumor (AID 1045); type: functional;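 also: HCT116 colon tumor cells with beta catenin knocked out; cells exposed to compound for 60 hours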
[15] = molecular target: T1, Heat shock factor protein 1 (Mus musculus, UniProt P38532); assay: inhibition of MG132-induced HSE-luciferase signal, confirmation, cell-based, NIH3T3, luminescence, dose retest (AID 2382); type: functional;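 also: NIH3T3 fibroblasts with HSF1-driven luciferase reporter stressed by proteasome inhibitor MG132; luminescence from HSF1-driven luciferase expression after 8 hours of MG132 stress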
T1 sequence (P38532 whole entry): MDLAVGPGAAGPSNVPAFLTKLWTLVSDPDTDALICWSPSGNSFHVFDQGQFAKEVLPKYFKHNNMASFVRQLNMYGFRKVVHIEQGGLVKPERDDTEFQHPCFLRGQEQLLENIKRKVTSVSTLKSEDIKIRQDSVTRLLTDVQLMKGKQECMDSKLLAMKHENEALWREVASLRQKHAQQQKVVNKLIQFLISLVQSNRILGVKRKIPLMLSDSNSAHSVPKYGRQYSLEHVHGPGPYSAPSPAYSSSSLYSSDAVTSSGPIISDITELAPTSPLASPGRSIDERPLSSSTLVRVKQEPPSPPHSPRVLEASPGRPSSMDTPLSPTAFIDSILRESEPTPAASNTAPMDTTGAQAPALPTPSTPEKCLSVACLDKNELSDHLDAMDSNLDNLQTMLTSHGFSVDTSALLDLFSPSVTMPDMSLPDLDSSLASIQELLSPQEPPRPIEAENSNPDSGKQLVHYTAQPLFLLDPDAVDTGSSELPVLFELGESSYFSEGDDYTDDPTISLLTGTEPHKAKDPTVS

[16] = HIV-1 Env-mediated cell fusion inhibitors, dose response, CCR5-tropic Env (AID 2279); type: functional
SUMO-activating enzyme [17] = molecular target: T2, SUMO-activating enzyme (Homo sapiens, UniProt Q9UBT2); assay: inhibitors of in vitro SUMOylation cascade, primary screen, biochemical, HTRF, uHTS (AID 2006); type: protein-complex assay
T2 sequence (Q9UBE0 whole entry): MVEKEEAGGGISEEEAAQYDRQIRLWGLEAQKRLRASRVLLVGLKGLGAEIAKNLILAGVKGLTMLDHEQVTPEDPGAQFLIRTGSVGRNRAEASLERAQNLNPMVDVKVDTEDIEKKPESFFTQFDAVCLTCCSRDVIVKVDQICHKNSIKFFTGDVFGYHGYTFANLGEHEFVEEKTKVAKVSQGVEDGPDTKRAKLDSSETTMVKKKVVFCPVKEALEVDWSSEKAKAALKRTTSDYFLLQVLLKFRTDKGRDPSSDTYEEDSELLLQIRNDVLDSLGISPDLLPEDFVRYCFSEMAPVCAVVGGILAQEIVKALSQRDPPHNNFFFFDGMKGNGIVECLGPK
T2 sequence (Q9UBT2 whole entry): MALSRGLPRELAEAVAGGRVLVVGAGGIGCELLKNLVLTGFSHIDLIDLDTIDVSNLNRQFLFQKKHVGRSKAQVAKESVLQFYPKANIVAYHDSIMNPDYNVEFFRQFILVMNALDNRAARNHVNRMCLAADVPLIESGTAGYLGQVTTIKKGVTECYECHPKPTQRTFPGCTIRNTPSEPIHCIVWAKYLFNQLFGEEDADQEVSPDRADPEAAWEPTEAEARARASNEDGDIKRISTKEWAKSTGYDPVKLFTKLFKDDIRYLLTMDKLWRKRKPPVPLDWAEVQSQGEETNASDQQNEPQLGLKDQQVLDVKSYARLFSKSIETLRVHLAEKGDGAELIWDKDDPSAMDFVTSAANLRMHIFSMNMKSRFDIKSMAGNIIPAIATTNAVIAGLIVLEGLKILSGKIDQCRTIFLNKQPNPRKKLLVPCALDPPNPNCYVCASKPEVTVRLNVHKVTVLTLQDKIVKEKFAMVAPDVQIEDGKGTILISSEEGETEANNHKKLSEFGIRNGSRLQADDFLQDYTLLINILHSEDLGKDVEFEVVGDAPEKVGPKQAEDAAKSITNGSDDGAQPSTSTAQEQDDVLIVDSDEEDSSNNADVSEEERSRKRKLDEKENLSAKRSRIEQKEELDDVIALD

[18] = molecular target: Induced myeloid leukemia cell differentiation protein Mcl-1 (Homo sapiens, UniProt Q07820); type: functional
Sequence of Induced myeloid leukemia cell differentiation protein Mcl-1 (Q07820 whole entry): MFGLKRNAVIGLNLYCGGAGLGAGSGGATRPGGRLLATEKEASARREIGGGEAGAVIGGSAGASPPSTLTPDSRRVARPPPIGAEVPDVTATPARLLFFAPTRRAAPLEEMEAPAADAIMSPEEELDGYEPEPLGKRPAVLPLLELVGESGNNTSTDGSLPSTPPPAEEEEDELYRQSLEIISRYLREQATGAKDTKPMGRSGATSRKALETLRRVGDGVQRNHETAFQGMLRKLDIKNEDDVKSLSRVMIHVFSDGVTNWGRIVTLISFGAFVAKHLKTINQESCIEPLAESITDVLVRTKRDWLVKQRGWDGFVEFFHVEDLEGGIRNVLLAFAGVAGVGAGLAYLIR

SUMO-activating enzyme [19] = molecular target: T2, SUMO-activating enzyme; assay: SUMOylation inhibitor hit validation, confirmation, SUMOylation inhibitor project, biochemical, AlphaScreen (AID 2018); type: functional
[20] = Luminescence-based counterscreen assay for KLF5 inhibitors: dose response cell-based high throughput screening assay to identify cytotoxic compounds using the IEC-6 intestinal epithelial cell line. [Related pubchem assays: 1700 (Primary screen.), 1834 (Confirmation screen.), 1858 (Summary AID.), 1905 (Counterscreen.)]; type: functional
[21] = non-specific cell cytotoxicity, dose response, cytotoxicity control for PAX8 inhibitor project, plate reader, dry powder samples (AID 743021); type: functional, cell-based
[22] = molecular target: Luciferin 4-monooxygenase (Photinus pyralis, UniProt P08659); assay: firefly luciferase enzyme inhibitors, dose response, biochemical, luminescence (AID 1891)
Sequence of Luciferin 4-monooxygenase (P08659 whole entry): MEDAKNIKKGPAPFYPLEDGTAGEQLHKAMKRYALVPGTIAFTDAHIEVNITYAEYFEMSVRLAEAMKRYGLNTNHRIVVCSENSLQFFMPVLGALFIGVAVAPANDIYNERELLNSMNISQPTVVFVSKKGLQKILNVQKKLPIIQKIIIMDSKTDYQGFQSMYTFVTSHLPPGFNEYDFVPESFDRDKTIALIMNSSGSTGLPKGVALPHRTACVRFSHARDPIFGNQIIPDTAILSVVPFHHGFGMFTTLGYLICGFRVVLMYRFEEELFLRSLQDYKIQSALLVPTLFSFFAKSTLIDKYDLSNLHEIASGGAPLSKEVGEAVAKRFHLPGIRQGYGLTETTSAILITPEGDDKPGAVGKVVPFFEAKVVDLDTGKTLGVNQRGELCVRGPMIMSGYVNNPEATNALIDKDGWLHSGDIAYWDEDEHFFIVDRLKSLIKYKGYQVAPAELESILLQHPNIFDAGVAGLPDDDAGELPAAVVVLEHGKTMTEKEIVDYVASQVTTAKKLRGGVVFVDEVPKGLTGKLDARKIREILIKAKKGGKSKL

A-375 = assay: MITF: Counter assay: A375 proliferation Measured in Cell-Based System Using Plate Reader - 2084-03_Inhibitor_Dose_DryPowder_Activity. [Related pubchem assays (depositor defined):AID488944]; type: functional; details: Homo sapiens
[23] = Luminescence Cell-Based Dose Confirmation HTS to Identify Inhibitors of Platelet Dense Granule Release. [Related pubchem assays: 1663 (Primary HTS), 1678 (Summary of Project)]; type: functional
[24] = molecular target: T3, Microphthalmia-associated transcription factor (Homo sapiens, UniProt O75030); assay: TRPM1 promoter luciferase signal decrease, dose response, MITF inhibitor project, cell-based, SK-MEL-5, cherry-picked, set 3 (AID 493073); type: functional
T3 sequence (O75030 whole entry): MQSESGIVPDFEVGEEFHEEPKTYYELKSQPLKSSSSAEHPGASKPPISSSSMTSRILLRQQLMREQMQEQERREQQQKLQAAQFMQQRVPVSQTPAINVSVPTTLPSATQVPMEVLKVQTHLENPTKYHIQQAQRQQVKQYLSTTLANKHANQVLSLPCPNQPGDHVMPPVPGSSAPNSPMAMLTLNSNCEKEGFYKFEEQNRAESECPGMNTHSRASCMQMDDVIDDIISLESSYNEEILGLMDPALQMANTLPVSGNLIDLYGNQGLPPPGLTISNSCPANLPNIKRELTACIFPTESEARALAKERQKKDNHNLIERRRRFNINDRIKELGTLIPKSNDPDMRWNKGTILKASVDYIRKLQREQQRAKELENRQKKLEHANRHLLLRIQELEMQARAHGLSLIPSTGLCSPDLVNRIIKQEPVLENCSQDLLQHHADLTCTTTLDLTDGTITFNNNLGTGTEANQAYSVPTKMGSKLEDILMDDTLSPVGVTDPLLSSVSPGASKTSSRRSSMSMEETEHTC

Paired box protein Pax-8 = Paired box protein Pax-8 (Homo sapiens, UniProt Q06710); assay: inhibitors of PAX8-driven TPO luciferase reporter, dose response, RMG-I cells, cherry-pick (AID 687027); type: functional, cell-based;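 also: luciferase reporter driven by Pax8 target thyroperoxidase promoter measured by SteadyGlo luminescence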
Sequence of Paired box protein Pax-8 (Q06710 whole entry): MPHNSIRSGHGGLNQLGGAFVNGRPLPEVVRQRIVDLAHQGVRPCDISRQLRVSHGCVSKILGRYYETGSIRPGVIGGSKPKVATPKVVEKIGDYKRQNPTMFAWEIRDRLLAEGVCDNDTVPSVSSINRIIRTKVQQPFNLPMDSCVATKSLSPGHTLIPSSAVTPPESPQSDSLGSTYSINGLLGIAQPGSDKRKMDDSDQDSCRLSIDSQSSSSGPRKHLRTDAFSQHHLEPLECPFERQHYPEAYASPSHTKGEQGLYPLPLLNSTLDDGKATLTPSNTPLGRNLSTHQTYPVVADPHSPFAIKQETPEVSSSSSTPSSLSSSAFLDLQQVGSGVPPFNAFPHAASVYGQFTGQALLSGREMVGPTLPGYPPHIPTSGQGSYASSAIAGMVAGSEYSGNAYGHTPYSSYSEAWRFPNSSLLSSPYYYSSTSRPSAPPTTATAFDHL

[25] = cytotoxicity in HEK-293T cells, dose response, cytotoxicity control for TCR NF-kB inhibitor project, luminescence, T-cell screen hits (AID 489026); type: functional, cell-based;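 also: cells exposed to compound about 14 hours before the viability readout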

Cc1ccc(-c2nc(NC(=O)c3nn(C)cc3[N+](=O)[O-])sc2C)cc1C
AC50 [1]: 2.25 µM (active)
AC50 [2]: 18.2 µM (active)
IC50 (HEK293 [3]): 3.82 µM (active)
EC50 [4]: 64.1 µM (inactive)
CC50 (HeLa): 2.08 µM (active)
IC50 [5]: 18.1 µM (not active)
EC50 [6]: 0.224 µM (active)
IC50 (HEK293 [7]): 17.7 µM (active)
EC50 [8]: 4.71 µM (active)
IC50 (HEK293 [9]): 6.72 µM (active)
EC50 (HEK293 [10]): 9.93 µM (active)
IC50 [11]: 1 µM (active)
EC50 [12]: 2.7 µM (active)
AC50 [13]: 6.06 µM (active)
AC50 (INS1): 3.62 µM (active)
EC50 [14]: 0.207 µM (active)
EC50 [15]: 4.28 µM (inconclusive)

CN(C)S(=O)(=O)c1cccc(-c2nn(-c3ccccc3)cc2/C=C2\SC(=S)NC2=O)c1
IC50 [16]: 7.08 µM (active)
IC50 (SUMO-activating enzyme [17]): 10.6 µM (active)
IC50 [18]: 1.44 µM (active)
IC50 (SUMO-activating enzyme [19]): 7.59 µM (active)

COc1cccc(/C=N/Nc2ccc(C(=O)O)cc2)c1O
IC50 [20]: > 39.8 µM (not active)
AC50 [21]: 21.6 µM (active)
EC50 [22]: 0.693 µM (active)
AC50 (A-375): 29.9 µM (active)
EC50 [23]: 0.17 µM (active)
AC50 [24]: 0.333 µM (active)
AC50 (Paired box protein Pax-8): 0.635 µM (active)
IC50 [25]: > 80 µM (inactive)
